# According to the supplement of paper PMC10307832:
# Legend:
# Test in all cases: relative viability (nuclei count vs DMSO), 5 days (fraction); higher = more cells survive
# BI-D1870 + Linsitinib = compound: CC(C)CCN1c2nc(Nc3cc(F)c(O)c(F)c3)ncc2N(C)C(=O)C1C [BI-D1870] + C[C@]1(O)C[C@@H](c2nc(-c3ccc4ccc(-c5ccccc5)nc4c3)c3c(N)nccn32)C1 [Linsitinib] (partner 1 µM)
# Outline: (§1)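 Lung cancer cell lines were seeded in 1536-well plates and dosed by pin tool the next day, with either a single drug or a fixed anchor-drug dose combined with five library-drug doses (not always all listed) spaced in √10 steps. Five days later, one step fixed the cells and stained their nuclei (final 0.05% Triton X-100, 1% formaldehyde, 1 ug/ml Hoechst), and nuclei were counted on 4× images. Relative viability is the nuclei count in treated wells divided by the count in vehicle wells, and each value is the median of duplicate plates.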
# Zebularine + Lapatinib = compound: O=c1ncccn1[C@@H]1O[C@H](CO)[C@@H](O)[C@H]1O [Zebularine] + CS(=O)(=O)CCNCc1ccc(-c2ccc3ncnc(Nc4ccc(OCc5cccc(F)c5)c(Cl)c4)c3c2)o1 [Lapatinib] (partner 2 µM)
# Outline: as §1
# BI-D1870 + Dasatinib = compound: CC(C)CCN1c2nc(Nc3cc(F)c(O)c(F)c3)ncc2N(C)C(=O)C1C [BI-D1870] + Cc1nc(Nc2ncc(C(=O)Nc3c(C)cccc3Cl)s2)cc(N2CCN(CCO)CC2)n1 [Dasatinib] (partner 0.075 µM)
# Outline: as §1
# BI-D1870 + Pemetrexed = compound: CC(C)CCN1c2nc(Nc3cc(F)c(O)c(F)c3)ncc2N(C)C(=O)C1C [BI-D1870] + Nc1nc2[nH]cc(CCc3ccc(C(=O)N[C@@H](CCC(=O)O)C(=O)O)cc3)c2c(=O)[nH]1 [Pemetrexed] (partner 0.2 µM)
# Outline: as §1
Cell Line,relative viability (BI-D1870 + Linsitinib; first compound 0.04 µM),relative viability (BI-D1870 + Linsitinib; first compound 0.1265 µM),relative viability (BI-D1870 + Linsitinib; first compound 0.4 µM),relative viability (BI-D1870 + Linsitinib; first compound 1.265 µM),relative viability (BI-D1870 + Linsitinib; first compound 4 µM),relative viability (Zebularine + Lapatinib; first compound 1 µM),relative viability (Zebularine + Lapatinib; first compound 3.162 µM),relative viability (Zebularine + Lapatinib; first compound 31.62 µM),relative viability (Zebularine + Lapatinib; first compound 100 µM),relative viability (BI-D1870 + Dasatinib; first compound 0.04 µM),relative viability (BI-D1870 + Dasatinib; first compound 0.1265 µM),relative viability (BI-D1870 + Dasatinib; first compound 0.4 µM),relative viability (BI-D1870 + Dasatinib; first compound 1.265 µM),relative viability (BI-D1870 + Dasatinib; first compound 4 µM),relative viability (BI-D1870 + Pemetrexed; first compound 0.04 µM),relative viability (BI-D1870 + Pemetrexed; first compound 0.1265 µM),relative viability (BI-D1870 + Pemetrexed; first compound 0.4 µM),relative viability (BI-D1870 + Pemetrexed; first compound 1.265 µM),relative viability (BI-D1870 + Pemetrexed; first compound 4 µM),relative viability (Zebularine + Lapatinib; first compound 10 µM)
HARA,1.1,0.897,1.03,1.09,0.873,0.731,0.906,0.896,1.02,0.195,0.195,0.233,0.282,0.302,0.234,0.227,0.267,0.243,0.218,–
NCI-H596,1.13,1.07,1.05,1.17,1.07,1.19,1.11,1.18,1,0.633,0.475,0.597,0.684,0.564,0.458,0.47,0.45,0.576,0.454,0.759
NCI-H1563,1.4,1.1,1.13,1.07,1.19,1,0.782,1.13,0.946,0.456,0.434,0.425,0.506,0.477,0.869,0.793,0.776,0.776,0.841,0.907
NCI-H23,0.911,0.385,0.586,0.61,0.685,1.15,1.12,1.21,0.756,0.923,0.741,0.692,0.588,0.579,1.12,0.585,0.602,0.684,0.316,–
LCLC-97TM1,0.238,0.158,0.19,0.244,0.193,0.784,0.665,0.376,0.139,0.932,0.833,0.947,0.899,0.709,0.173,0.188,0.16,0.221,0.175,0.451
EPLC-272H,1.22,1.15,1.34,1.22,1.14,0.935,–,0.992,0.598,0.414,0.38,0.338,0.364,0.32,0.325,0.355,0.242,0.295,0.202,–
NCI-H1915,1.1,1.12,1.1,1.12,1.05,1.12,0.961,1.13,0.979,0.356,0.276,0.294,0.274,0.261,0.473,0.489,0.458,0.419,0.381,0.717
NCI-H2405,1.07,0.839,0.901,1.06,0.909,1.06,0.946,0.963,0.76,0.253,0.19,0.218,0.215,0.219,1.2,1.01,1,1.04,0.796,0.906
NCI-H322M,1.05,0.904,0.826,0.879,0.883,0.608,0.589,0.601,0.576,0.236,0.27,0.234,0.234,0.283,0.632,0.564,0.596,0.59,0.517,0.586
NCI-H1395,1.11,0.922,1.14,1.2,0.85,1.27,1.04,0.702,0.507,0.471,0.432,0.428,0.359,0.384,0.882,0.735,0.848,0.95,0.86,0.799
NCI-H358,0.694,0.705,0.812,0.625,0.381,0.48,0.401,0.467,0.303,0.177,0.172,0.195,0.257,0.288,0.184,0.168,0.153,0.164,0.164,0.44
NCI-H838,1.13,0.962,0.998,1.13,0.957,1.19,1.14,0.834,0.382,0.342,0.244,0.314,0.274,0.243,0.267,0.249,0.31,0.248,0.262,0.632
CAL-12T,0.935,0.559,0.749,0.79,0.704,0.757,0.658,0.701,0.633,0.489,0.272,0.411,0.512,0.176,1.29,1.16,1.33,1.15,0.736,–
